Laboratory results from PubChem BioAssay AID210 (DTP/NCI, 2004).
Several values for one entry are separate records, joined by “and”; a condition that tells them apart may be missing. Equal entries are not always repeated. Inconclusive results and toxic doses are left out.

Test system: CD2F1 mice, ip Colon 26 adenocarcinoma, median survival T/C
Test: NCI In Vivo Anticancer Drug Screen. Data for tumor model Colon 26 Adenocarcinoma (intraperitoneal) in CD2F1 (CDF1) mice
Settings: endpoint: median survival time, higher = longer survival
Description: The antitumor activity of compounds was measured in mice bearing transplantable tumors. Survival or tumor size were measured and the results are expressed as the measurement made in the treated group (T) divided by the measurement made in the vehicle treated control group (C). The tumor model used in this assay is Colon 26 Adenocarcinoma (intraperitoneal) in CD2F1 (CDF1) mice

CC(=O)[C@]1(O)Cc2c(O)c3c(c(O)c2[C@@H](OC2CC(N)C(O)C(C)O2)C1)C(=O)c1c(O)cccc1C3=O (some centres not stated)
T/C (dose: 0.7 mg/kg/injection, schedule: Q07DX003 (iv), vehicle: water): 106 % of control
T/C (dose: 1.1 mg/kg/injection, schedule: Q07DX003 (iv), vehicle: water): 124 % of control
T/C (dose: 1.8 mg/kg/injection, schedule: Q07DX002 (iv), vehicle: water): 157 % of control
T/C (dose: 1.8 mg/kg/injection, schedule: Q07DX003 (iv), vehicle: water): 157 % of control
T/C (dose: 2.8 mg/kg/injection, schedule: Q07DX002 (iv), vehicle: water): 183 % of control
T/C (dose: 2.8 mg/kg/injection, schedule: Q07DX003 (iv), vehicle: water): 187 % of control
T/C (dose: 4.2 mg/kg/injection, schedule: Q07DX002 (iv), vehicle: water): 104 % of control
T/C (dose: 600.0 micrograms/kg/injection, schedule: Q04DX003 (ip), vehicle: water): 92 % of control

N=[N+]=CC(=O)OCC(N)C(=O)O (configuration not stated)
T/C (dose: 3.12 mg/kg/injection, schedule: Q04DX003 (ip), vehicle: water): 113 % of control
T/C (dose: 6.25 mg/kg/injection, schedule: Q04DX003 (ip), vehicle: water): 113 % of control
T/C (dose: 12.5 mg/kg/injection, schedule: Q04DX003 (ip), vehicle: water): 105 % of control
T/C (dose: 25.0 mg/kg/injection, schedule: Q04DX003 (ip), vehicle: water): 111 % of control
T/C (dose: 50.0 mg/kg/injection, schedule: Q04DX003 (ip), vehicle: water): 95 % of control

O=S(=O)(O)O
T/C (dose: 30.0 mg/kg/injection, schedule: Q01DX009 (ip), vehicle: saline with Tween-80): 100 % of control
T/C (dose: 44.0 mg/kg/injection, schedule: Q01DX009 (ip), vehicle: saline with Tween-80): 95 % of control
T/C (dose: 67.0 mg/kg/injection, schedule: Q01DX009 (ip), vehicle: saline with Tween-80): 101 % of control

CN(Cc1cnc2nc(N)nc(N)c2n1)c1ccc(C(=O)N[C@@H](CCC(=O)O)C(=O)O)cc1
T/C (dose: 30.0 mg/kg/injection, schedule: Q07DX003 (ip), vehicle: saline): 105 % of control
T/C (dose: 44.0 mg/kg/injection, schedule: Q07DX003 (ip), vehicle: saline): 88 % of control
T/C (dose: 44.0 mg/kg/injection, schedule: Q07DX003 (ip), vehicle: sodium bicarbonate): 121 % of control
T/C (dose: 63.0 mg/kg/injection, schedule: Q07DX003 (ip), vehicle: saline): 93 % of control

CC1(CO)C(=O)CCC2(C)C1CCC1CC3CC12CCC3(O)CO (configuration not stated)
T/C (dose: 37.5 mg/kg/injection, schedule: Q04DX002 (ip), vehicle: distilled water + Tween-80): 97 % of control
T/C (dose: 75.0 mg/kg/injection, schedule: Q04DX002 (ip), vehicle: distilled water + Tween-80): 101 % of control
T/C (dose: 150.0 mg/kg/injection, schedule: Q04DX002 (ip), vehicle: distilled water + Tween-80): 94 % of control

O=C1c2ccccc2C(=O)c2c(NCCNCCO)ccc(NCCNCCO)c21
T/C (dose: 2.0 mg/kg/injection, schedule: Q01DX009 (ip), vehicle: saline): 191 % of control
T/C (dose: 2.5 mg/kg/injection, schedule: Q01DX009 (ip), vehicle: saline): 200 % of control and 223 % of control
T/C (dose: 2.62 mg/kg/injection, schedule: Q01DX009 (ip), vehicle: saline): 172 % of control
T/C (dose: 3.89 mg/kg/injection, schedule: Q01DX009 (ip), vehicle: saline): 209 % of control
T/C (dose: 3.89 mg/kg/injection, schedule: Q01DX009 (sc), vehicle: saline): 104 % of control
T/C (dose: 4.0 mg/kg/injection, schedule: Q01DX009 (ip), vehicle: acid diluted with saline): 182 % of control
T/C (dose: 4.0 mg/kg/injection, schedule: Q01DX009 (ip), vehicle: saline): 226 % of control
T/C (dose: 5.0 mg/kg/injection, schedule: Q01DX009 (ip), vehicle: saline): 193 % of control and 223 % of control
T/C (dose: 5.25 mg/kg/injection, schedule: Q01DX009 (ip), vehicle: saline): 213 % of control
T/C (dose: 6.22 mg/kg/injection, schedule: Q04DX003 (iv), vehicle: saline): 110 % of control
T/C (dose: 6.48 mg/kg/injection, schedule: Q01DX009 (ip), vehicle: saline): 209 % of control
T/C (dose: 6.48 mg/kg/injection, schedule: Q01DX009 (sc), vehicle: saline): 104 % of control
T/C (dose: 7.78 mg/kg/injection, schedule: Q01DX001 (iv), vehicle: saline): 104 % of control
T/C (dose: 8.0 mg/kg/injection, schedule: Q01DX009 (ip), vehicle: acid diluted with saline): 219 % of control
T/C (dose: 8.0 mg/kg/injection, schedule: Q01DX009 (ip), vehicle: saline): 236 % of control
T/C (dose: 8.0 mg/kg/injection, schedule: Q04DX003 (ip), vehicle: Klucel (hydroxypropylcellulose) (HPC)): 168 % of control
T/C (dose: 8.0 mg/kg/injection, schedule: Q04DX003 (ip), vehicle: water): 121 % of control and 209 % of control
T/C (dose: 10.0 mg/kg/injection, schedule: Q01DX009 (ip), vehicle: saline): 212 % of control and 267 % of control
T/C (dose: 10.4 mg/kg/injection, schedule: Q04DX003 (iv), vehicle: saline): 106 % of control
T/C (dose: 10.5 mg/kg/injection, schedule: Q01DX009 (ip), vehicle: saline): 294 % of control
T/C (dose: 10.8 mg/kg/injection, schedule: Q01DX009 (ip), vehicle: saline): 182 % of control
T/C (dose: 10.8 mg/kg/injection, schedule: Q01DX009 (sc), vehicle: saline): 105 % of control
T/C (dose: 13.0 mg/kg/injection, schedule: Q01DX001 (iv), vehicle: saline): 116 % of control
T/C (dose: 16.0 mg/kg/injection, schedule: Q01DX009 (ip), vehicle: acid diluted with saline): 219 % of control
T/C (dose: 16.0 mg/kg/injection, schedule: Q01DX009 (ip), vehicle: saline): 305 % of control
T/C (dose: 16.0 mg/kg/injection, schedule: Q04DX003 (ip), vehicle: Klucel (hydroxypropylcellulose) (HPC)): 200 % of control and 170 % of control and 220 % of control
T/C (dose: 16.0 mg/kg/injection, schedule: Q04DX003 (ip), vehicle: water): 188 % of control and 287 % of control
T/C (dose: 17.3 mg/kg/injection, schedule: Q04DX003 (ip), vehicle: saline): 189 % of control
T/C (dose: 17.3 mg/kg/injection, schedule: Q04DX003 (iv), vehicle: saline): 101 % of control
T/C (dose: 18.0 mg/kg/injection, schedule: Q01DX009 (ip), vehicle: saline): 182 % of control
T/C (dose: 18.0 mg/kg/injection, schedule: Q01DX009 (sc), vehicle: saline): 99 % of control
T/C (dose: 20.0 mg/kg/injection, schedule: Q01DX009 (ip), vehicle: saline): 193 % of control
T/C (dose: 21.0 mg/kg/injection, schedule: Q01DX009 (ip), vehicle: saline): 268 % of control
T/C (dose: 21.6 mg/kg/injection, schedule: Q01DX001 (iv), vehicle: saline): 100 % of control
T/C (dose: 25.0 mg/kg/injection, schedule: Q07DX003 (iv), vehicle: Klucel (hydroxypropylcellulose) (HPC)): 104 % of control
T/C (dose: 28.8 mg/kg/injection, schedule: Q04DX003 (ip), vehicle: saline): 150 % of control
T/C (dose: 28.8 mg/kg/injection, schedule: Q04DX003 (iv), vehicle: saline): 101 % of control
T/C (dose: 30.0 mg/kg/injection, schedule: Q01DX009 (sc), vehicle: saline): 90 % of control
T/C (dose: 32.0 mg/kg/injection, schedule: Q01DX009 (ip), vehicle: acid diluted with saline): 274 % of control
T/C (dose: 32.0 mg/kg/injection, schedule: Q04DX003 (ip), vehicle: Klucel (hydroxypropylcellulose) (HPC)): 162 % of control and 182 % of control
T/C (dose: 32.0 mg/kg/injection, schedule: Q04DX003 (ip), vehicle: water): 159 % of control and 287 % of control
T/C (dose: 36.0 mg/kg/injection, schedule: Q01DX001 (iv), vehicle: saline): 109 % of control
T/C (dose: 42.0 mg/kg/injection, schedule: Q01DX009 (ip), vehicle: saline): 268 % of control
T/C (dose: 48.0 mg/kg/injection, schedule: Q04DX003 (ip), vehicle: saline): 161 % of control
T/C (dose: 48.0 mg/kg/injection, schedule: Q04DX003 (iv), vehicle: saline): 108 % of control
T/C (dose: 50.0 mg/kg/injection, schedule: Q07DX003 (iv), vehicle: Klucel (hydroxypropylcellulose) (HPC)): 108 % of control
T/C (dose: 60.0 mg/kg/injection, schedule: Q01DX001 (iv), vehicle: saline): 105 % of control
T/C (dose: 64.0 mg/kg/injection, schedule: Q04DX003 (ip), vehicle: Klucel (hydroxypropylcellulose) (HPC)): 163 % of control and 173 % of control
T/C (dose: 64.0 mg/kg/injection, schedule: Q04DX003 (ip), vehicle: water): 177 % of control and 209 % of control
T/C (dose: 80.0 mg/kg/injection, schedule: Q04DX003 (ip), vehicle: saline): 165 % of control

C1OC1CN1CCN(CC2CO2)CC1 (configuration not stated)
T/C (dose: 3.12 mg/kg/injection, schedule: Q04DX003 (ip), vehicle: saline): 112 % of control and 98 % of control
T/C (dose: 6.25 mg/kg/injection, schedule: Q04DX003 (ip), vehicle: saline): 108 % of control and 120 % of control
T/C (dose: 25.0 mg/kg/injection, schedule: Q04DX003 (ip), vehicle: saline): 167 % of control
T/C (dose: 50.0 mg/kg/injection, schedule: Q04DX003 (ip), vehicle: saline): 175 % of control and 193 % of control
